The subject of this assay is mutant HTT protein (mHTT). The assay is described as follows: Homogeneous Time Resolved Fluorescence (HTRF) assay for HTT lowering. The note with it: reduction of mHTT in Huntington patient human cells (GENEAe020-A cell line), 48 hours incubation, mean from three replicates. The assay is classed as cell-based. On the procedure:
Homogeneous Time Resolved Fluorescence for HTT lowering
The HTRF assay was adapted from Weiss et al. (Analytical Biochemistry Volume 395, Issue 1, 1 Dec. 2009, Pages 8-15 and Analytical Biochemistry Volume 410, 2011, Pages 304-306) to cells from GENEAe020-A cell line (https://hpscreg.eu/cell-line/GENEAe020-A).
Compounds were tested for the effect of mutant HTT levels in Huntington patient human cells (GENEAe020-A cell line) using Homogeneous Time Resolved Fluorescence (HTRF) directed towards mutant HTT protein (mHTT). The GENEAe020-A cell line was derived by Genea Biocells from human blastocysts of HD donors. After assessing viability, cells were plated into 384 well collagen coated plates in growth media. Once cells adhered, media was removed and test compounds dissolved in DMSO were diluted with buffer solution and added to the adherent cells. Controls included experiments with no cells, DMSO with no compound, and Hsp90 inhibitor control. Cells were incubated with compounds and controls for 48 hours. Then, the cells were lysed and transferred to an assay plate containing HTRF labeled monoclonal antibodies developed by Paul Patterson (Ko et al., Brain Research Bulletin, Volume 56, Numbers 3 and 4, 2001, Pages 319-329) which recognize specific areas of the HTT protein. The terbium labeled “donor” antibody (2B7) binds to the N-terminus of the HTT protein and the Alexa488 labeled “acceptor” antibody (MW1) is specific for the polyglutamine region of the protein. Binding of the acceptor labeled antibody is more efficient for the extended polyglutamine repeats of mutant HTT protein which translates into a signal boost which enables the specific measurement of mutant HTT protein level. The HTRF donor and acceptor detection reagents were incubated with the cell lysate and the ratio between the signals of the two fluorophores is indicative of the relative quantities of mHTT.

A word on the EC50: it is the concentration at which the effect is half-maximal.

`Cc1nc2c(C(F)(F)F)cc(-c3cc(=O)n4cc(N5CCNCC5)sc4n3)nc2o1` [Example 28, 7-[2-methyl-7-(trifluoromethyl)oxazolo[5,4-b]pyridin-5-yl]-2-piperazin-1-yl-thiazolo[3,2-a]pyrimidin-5-one]: the EC50 is 0.691 µM. That is a sub-micromolar value.

`Cc1cn2nc(-c3cc(=O)n4cc(N5CCNCC5)sc4n3)cc(C3CC3)c2n1` [Example 18, 7-(8-cyclopropyl-2-methyl-imidazo[1,2-b]pyridazin-6-yl)-2-piperazin-1-yl-thiazolo[3,2-a]pyrimidin-5-one] gave an EC50 of 0.469 µM.

In turn, `Cc1cn2nc(-c3cc(=O)n4cc(N5CCN[C@@H](C)C5)sc4n3)cc(C)c2n1` [Example 6, 7-(2,8-dimethylimidazo[1,2-b]pyridazin-6-yl)-2-[(3S)-3-methylpiperazin-1-yl]thiazolo[3,2-a]pyrimidin-5-one] had an EC50 of 0.268 µM. Against the preceding compound, the EC50 is about 1.7-fold lower.

On to `Cc1cc(-c2cc(=O)n3cc(C4CCNCC4)sc3n2)nn2cc(Cl)nc12` [Example 31, 7-(2-chloro-8-methyl-imidazo[1,2-b]pyridazin-6-yl)-2-(4-piperidyl)thiazolo[3,2-a]pyrimidin-5-one], for which a half-maximal effect (EC50) was put at 0.071 µM.

`Cc1nc2c(F)cc(-c3cc(=O)n4cc(N5CCNCC5)sc4n3)cc2o1` [Example 5, 7-(4-fluoro-2-methyl-1,3-benzoxazol-6-yl)-2-piperazin-1-yl-thiazolo[3,2-a]pyrimidin-5-one] returned an EC50 of 0.499 µM.

In turn, `Cc1cn2nc(-c3cc(=O)n4cc(N5CC6CNCC6C5)sc4n3)cc(C)c2n1` (centres unmarked) [Example 17, 2-(2,3,3a,4,6,6a-hexahydro-1H-pyrrolo[3,4-c]pyrrol-5-yl)-7-(2,8-dimethylimidazo[1,2-b]pyridazin-6-yl)thiazolo[3,2-a]pyrimidin-5-one] showed an EC50 of 0.421 µM.

The compound `Cc1cn2nc(-c3cc(=O)n4cc(N5C[C@@H]6C[C@H]5CN6)sc4n3)cc(C)c2n1` [Example 16, 7-(2,8-dimethylimidazo[1,2-b]pyridazin-6-yl)-2-[(1S,4S)-2,5-diazabicyclo[2.2.1]heptan-2-yl]thiazolo[3,2-a]pyrimidin-5-one] registered an EC50 of 9.54 µM. Compared with the last compound, the EC50 is about 23-fold higher.

Turning to `Cc1cn2nc(-c3cc(=O)n4cc(N5CCNCC5)sc4n3)cc(C)c2n1` [Example 1, 7-(2,8-dimethylimidazo[1,2-b]pyridazin-6-yl)-2-piperazin-1-yl-thiazolo[3,2-a]pyrimidin-5-one], the EC50 amounted to 0.046 µM.

Compound `CCc1cc(-c2cc(=O)n3cc(N4CCNCC4)sc3n2)nn2cc(C)nc12` [Example 12, 7-(8-ethyl-2-methyl-imidazo[1,2-b]pyridazin-6-yl)-2-piperazin-1-yl-thiazolo[3,2-a]pyrimidin-5-one] returned an EC50 of 0.104 µM.

Take `Cc1cn2nc(-c3cc(=O)n4cc(C5(F)CCNCC5)sc4n3)cc(C)c2n1` [Example 26, 7-(2,8-dimethylimidazo[1,2-b]pyridazin-6-yl)-2-(4-fluoro-4-piperidyl)thiazolo[3,2-a]pyrimidin-5-one]: it took 0.128 µM to reach a half-maximal effect (EC50).

`Cc1cn2nc(-c3cc(=O)n4cc(N5CC(C)NC(C)C5)sc4n3)cc(C)c2n1` (centres unmarked) [Example 8, 7-(2,8-dimethylimidazo[1,2-b]pyridazin-6-yl)-2-(3,5-dimethylpiperazin-1-yl)thiazolo[3,2-a]pyrimidin-5-one] showed an EC50 of 0.386 µM.

As for `Cc1cn2nc(-c3cc(=O)n4cc(N5CCNCC5)sc4n3)ccc2n1` [Example 10, 7-(2-methylimidazo[1,2-b]pyridazin-6-yl)-2-piperazin-1-yl-thiazolo[3,2-a]pyrimidin-5-one], the response was half-maximal at 0.283 µM (EC50).

For the compound `Cc1cn2nc(-c3cc(=O)n4cc(N5CCC6(CCNCC6)C5)sc4n3)cc(C)c2n1` [Example 22, 2-(2,8-diazaspiro[4.5]decan-2-yl)-7-(2,8-dimethylimidazo[1,2-b]pyridazin-6-yl)thiazolo[3,2-a]pyrimidin-5-one], a half-maximal response (EC50) required 1.32 µM. Against the preceding compound, the EC50 is about 4.7-fold higher.

`COc1cc(-c2cc(=O)n3cc([C@]4(F)CCNC[C@H]4F)sc3n2)nn2cc(C)nc12` (racemic) [Example 51, 7-(8-methoxy-2-methyl-imidazo[1,2-b]pyridazin-6-yl)-2-[rac-(3R,4S)-3,4-difluoro-4-piperidyl]thiazolo[3,2-a]pyrimidin-5-one] displayed an EC50 of 0.102 µM.

In turn, `Cc1cn2nc(-c3cc(=O)n4cc([C@@H]5CCNC6(CC6)C5)sc4n3)cc(C)c2n1` [Example 37, 7-(2,8-dimethylimidazo[1,2-b]pyridazin-6-yl)-2-[(7R)-4-azaspiro[2.5]octan-7-yl]thiazolo[3,2-a]pyrimidin-5-one] gave an EC50 of 0.112 µM.

For `Cc1cn2nc(-c3cc(=O)n4cc([C@]5(F)CCNC[C@H]5F)sc4n3)cc(C)c2n1` (racemic) [Example 53, 7-(2,8-dimethylimidazo[1,2-b]pyridazin-6-yl)-2-[rac-(3R,4S)-3,4-difluoro-4-piperidyl]thiazolo[3,2-a]pyrimidin-5-one], a half-maximal effect (EC50) was put at 0.132 µM.

As to `Cc1cn2nc(-c3cc(=O)n4cc(N5CCNC(C)(C)C5)sc4n3)cc(C)c2n1` [Example 3, 7-(2,8-dimethylimidazo[1,2-b]pyridazin-6-yl)-2-(3,3-dimethylpiperazin-1-yl)thiazolo[3,2-a]pyrimidin-5-one], the EC50 worked out at 0.625 µM. Compared with the last compound, the EC50 is about 4.7-fold higher.

Regarding `Cc1cc(-c2cc(=O)n3cc([C@@H]4CCNC[C@@H]4F)sc3n2)nn2cc(Cl)nc12` [Example 43, 7-(2-chloro-8-methyl-imidazo[1,2-b]pyridazin-6-yl)-2-[(3R,4R)-3-fluoro-4-piperidyl]thiazolo[3,2-a]pyrimidin-5-one], the EC50 came to 0.152 µM.

In turn, `COc1cc(-c2cc(=O)n3cc([C@H]4CCNC[C@@H]4F)sc3n2)nn2cc(C)nc12` [Example 46, 7-(8-methoxy-2-methyl-imidazo[1,2-b]pyridazin-6-yl)-2-[(3R,4S)-3-fluoro-4-piperidyl]thiazolo[3,2-a]pyrimidin-5-one] came in with an EC50 of 0.069 µM.

As for `COc1cc(-c2cc(=O)n3cc([C@@]4(F)CCNC[C@H]4F)sc3n2)nn2cc(C)nc12` [Example 58, 7-(8-methoxy-2-methyl-imidazo[1,2-b]pyridazin-6-yl)-2-[(3R,4R)-3,4-difluoro-4-piperidyl]thiazolo[3,2-a]pyrimidin-5-one], the EC50 came to 0.099 µM. This EC50 and that of the compound before are within 1.5-fold of each other.

Regarding `Cc1cn2nc(-c3cc(=O)n4cc(N5CCN6CCC[C@@H]6C5)sc4n3)cc(C(F)(F)F)c2n1` [Example 25, 7-[2-methyl-8-(trifluoromethyl)imidazo[1,2-b]pyridazin-6-yl]-2-[(8aR)-3,4,6,7,8,8a-hexahydro-1H-pyrrolo[1,2-a]pyrazin-2-yl]thiazolo[3,2-a]pyrimidin-5-one], the EC50 was 0.454 µM.

`Cc1cn2nc(-c3cc(=O)n4cc(N5CCNC6(CC6)C5)sc4n3)cc(C)c2n1` [Example 4, 2-(4,7-diazaspiro[2.5]octan-7-yl)-7-(2,8-dimethylimidazo[1,2-b]pyridazin-6-yl)thiazolo[3,2-a]pyrimidin-5-one] showed an EC50 of 3.53 µM.

The compound `Cc1cn2nc(-c3cc(=O)n4cc([C@H]5CCNC6(CC6)C5)sc4n3)cc(C)c2n1` [Example 36, 7-(2,8-dimethylimidazo[1,2-b]pyridazin-6-yl)-2-[(7S)-4-azaspiro[2.5]octan-7-yl]thiazolo[3,2-a]pyrimidin-5-one] displayed an EC50 of 0.055 µM. This EC50 lies about 64-fold lower than the previous one.

For `Cc1cn2nc(-c3cc(=O)n4cc(N5CCNCC5)sc4n3)cc(C(F)(F)F)c2n1` [Example 11, 7-[2-methyl-8-(trifluoromethyl)imidazo[1,2-b]pyridazin-6-yl]-2-piperazin-1-yl-thiazolo[3,2-a]pyrimidin-5-one], a half-maximal effect (EC50) was put at 0.019 µM. This EC50 is about 2.9-fold lower than that of the compound before.

As to `COc1cc(-c2cc(=O)n3cc([C@H]4CCNC[C@H]4F)sc3n2)nn2cc(C)nc12` [Example 35, 7-(8-methoxy-2-methyl-imidazo[1,2-b]pyridazin-6-yl)-2-[(3S,4S)-3-fluoro-4-piperidyl]thiazolo[3,2-a]pyrimidin-5-one], the EC50 turned out to be 0.061 µM.

`COc1cc(-c2cc(=O)n3cc(N4CCNCC4)sc3n2)nn2cc(C)nc12` [Example 13, 7-(8-methoxy-2-methyl-imidazo[1,2-b]pyridazin-6-yl)-2-piperazin-1-yl-thiazolo[3,2-a]pyrimidin-5-one] displayed an EC50 of 0.118 µM.

Take `Cc1cn2nc(-c3cc(=O)n4cc([C@H]5[C@@H]6CNC[C@@H]65)sc4n3)cc(C)c2n1` [Example 55, 7-(2,8-dimethylimidazo[1,2-b]pyridazin-6-yl)-2-[rac-(1S,5R)-3-azabicyclo[3.1.0]hexan-6-yl]thiazolo[3,2-a]pyrimidin-5-one]: the EC50 was determined as 0.065 µM. Against the preceding compound, the EC50 is about 1.8-fold lower.

`Cc1cn2nc(-c3cc(=O)n4cc(N5CCN6CCC[C@H]6C5)sc4n3)cc(C)c2n1` [Example 9, 7-(2,8-dimethylimidazo[1,2-b]pyridazin-6-yl)-2-[(8aS)-3,4,6,7,8,8a-hexahydro-1H-pyrrolo[1,2-a]pyrazin-2-yl]thiazolo[3,2-a]pyrimidin-5-one] displayed a concentration giving a half-maximal response (EC50) of 0.796 µM. This EC50 lies about 12-fold higher than the previous one.

With `Cc1nc2c(C)cc(-c3cc(=O)n4cc(N5CCNCC5)sc4n3)nc2o1` [Example 20, 7-(2,7-dimethyloxazolo[5,4-b]pyridin-5-yl)-2-piperazin-1-yl-thiazolo[3,2-a]pyrimidin-5-one], the EC50 turned out to be 0.136 µM. This EC50 lies about 5.9-fold lower than the previous one.

These data come from US20240018163A1, “NEW THIAZOLOPYRIMIDINONE DERIVATIVES” (Hoffmann-La Roche Inc., priority 2021, published 2024).
